Measured values published in publication PMC8411522, “In vitro inhibitory effect of obtusofolin on the activity of CYP3A4, 2C9, and 2E1” (BMC Complementary Medicine and Therapies, 2021).

Experiments:
[1] = design: method as in PMID 33119923; conditions: rats, 1.3 mg/kg obtusofolin; cited from earlier work
CYP2E1 [2] = biological target: T1, CYP2E1 (Homo sapiens, UniProt P05181); experiment: Time-dependent inhibition of CYP2E1 in pooled HLMs; format: in vitro ADME; conditions: 20 μM obtusofolin, 5 to 30 min
T1 construct: Pooled HLMs were obtained from BD Bioscience (Woburn, USA); tissue BD Bioscience; host or cells: pooled human liver microsomes
T1 sequence (P05181 whole entry): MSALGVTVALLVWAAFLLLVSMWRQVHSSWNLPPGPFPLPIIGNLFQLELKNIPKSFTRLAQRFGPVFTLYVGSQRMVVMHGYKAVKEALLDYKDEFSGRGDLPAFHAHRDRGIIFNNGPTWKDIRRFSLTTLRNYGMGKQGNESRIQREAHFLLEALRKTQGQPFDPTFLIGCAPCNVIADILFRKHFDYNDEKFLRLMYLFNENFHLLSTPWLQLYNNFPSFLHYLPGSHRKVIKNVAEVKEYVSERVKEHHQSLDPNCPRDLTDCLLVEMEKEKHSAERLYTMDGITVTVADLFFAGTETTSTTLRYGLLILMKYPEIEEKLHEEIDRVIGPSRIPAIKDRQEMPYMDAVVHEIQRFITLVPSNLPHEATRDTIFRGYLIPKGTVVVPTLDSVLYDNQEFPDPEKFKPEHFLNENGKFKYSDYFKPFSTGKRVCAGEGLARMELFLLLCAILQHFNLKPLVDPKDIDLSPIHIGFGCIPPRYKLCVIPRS
Description: (§1) The time-dependent inhibition experiments were conducted at the incubation time of 0, 5, 10, 15, and 30 min at 37 °C with 20 μM obtusofolin. After the incubation, a total of 20 μL aliquot was transferred to another tube with the NADPH-generating system and probe substrates and incubation for a specific time. The reactions were terminated by the addition of acetonitrile and placed on ice for further analysis.

CYP2C9 [3] = biological target: T2, CYP2C9 (Homo sapiens, UniProt P11712); experiment: CYP2C9 inhibition in pooled human liver microsomes (diclofenac 4′-hydroxylation); format: in vitro ADME
T2 construct: Pooled HLMs were obtained from BD Bioscience (Woburn, USA); tissue BD Bioscience; host or cells: pooled human liver microsomes
T2 sequence (P11712 whole entry): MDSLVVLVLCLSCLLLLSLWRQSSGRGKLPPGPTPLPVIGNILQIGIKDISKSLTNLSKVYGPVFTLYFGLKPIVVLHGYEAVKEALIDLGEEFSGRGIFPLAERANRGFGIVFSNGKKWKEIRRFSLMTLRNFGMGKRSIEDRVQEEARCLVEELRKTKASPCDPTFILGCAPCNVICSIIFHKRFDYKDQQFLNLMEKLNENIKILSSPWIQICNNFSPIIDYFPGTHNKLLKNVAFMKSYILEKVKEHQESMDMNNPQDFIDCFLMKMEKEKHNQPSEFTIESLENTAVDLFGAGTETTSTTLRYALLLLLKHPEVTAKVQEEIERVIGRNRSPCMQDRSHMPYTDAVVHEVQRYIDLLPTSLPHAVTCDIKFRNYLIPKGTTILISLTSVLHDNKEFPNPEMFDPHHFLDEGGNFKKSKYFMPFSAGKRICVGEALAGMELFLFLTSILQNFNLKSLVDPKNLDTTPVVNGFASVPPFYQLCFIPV
Description: (§2) The investigation was conducted in pool human liver microsomes in vitro. Except for the HLMs treated with 100 μM obtusofolin, specific inhibitors, and negative control HLMs were also employed.
(§3) The incubation volume was 200 μL containing potassium phosphate buffer (pH 7.4), an NADPH-generating system composed of NADP^+, glucose-6-phosphate, glucose-6-phosphate dehydrogenase, and MgCl2, probe substrates, HLMs, and obtusofolin or positive inhibitors. The experiments for each CYP isoforms were performed in triplicate and the obtained results were represented as mean value ± SD.
(§4) The reactions were initiated by adding the NADPH-generating system after a 3-min preincubation at 37 °C. The reactions were terminated by adding 100 μL acetonitrile or 10% (v:v) trichloroacetic. The mixture was placed on ice and centrifuged at 12,000 rpm for 10 min. A total of 20 μL supernatant was obtained for the analysis of metabolites by HPLC.
(§5) Firstly, 100 μM obtusofolin was incubated with the above incubation system in HLMs to evaluate its effect on the activity of CYP450s. Then the dose-dependent experiments were performed to obtain corresponding parameters in the presence of 0, 2.5, 5, 10, 25, 50, and 100 μM obtusofolin. The concentrations of probe substrates were 20–100 μM testosterone for CYP3A4, 5–20 μM diclofenac for CYP2C9, and 25–250 μM chlorzoxazone for CYP2E1.
(§6) The enzyme kinetic parameters were obtained by the least-squares linear regression. The inhibition data were fitted with non-linear regression according to the following equation: V=VmaxS/Km1+I/Ki+Sfor competitive inhibitionCYP2C9 and 2E1; V=VmaxS/Km+S1+I/Kifor non−competitive inhibitionCYP3A4.
(§7) where I is the concentration of the compound, Ki is the inhibition constant, S is the concentration of the substrate and Km is the substrate concentration at half the maximum velocity (Vmax) of the reaction. The mechanism of the inhibition was inspected using the Lineweaver–Burk plots and the enzyme inhibition models. The data comparison was performed using the Student’s t-test and performed using IBM SPSS statistics 20 (SPSS Inc., Chicago, IL, USA).

CYP2E1 [4] = biological target: T1, CYP2E1; experiment: CYP2E1 inhibition in pooled human liver microsomes (chlorzoxazone 6-hydroxylation); format: in vitro ADME
Description: as §2, §3, §4, §5, §6, §7

CYP2C9 [5] = biological target: T2, CYP2C9; experiment: Time-dependent inhibition of CYP2C9 in pooled HLMs; format: in vitro ADME; conditions: 20 μM obtusofolin, 5 to 30 min
Description: as §1

CYP3A4 [6] = biological target: T3, CYP3A4 (Homo sapiens, UniProt P08684); experiment: CYP3A4 inhibition in pooled human liver microsomes (testosterone 6β-hydroxylation); format: in vitro ADME
T3 construct: Pooled HLMs were obtained from BD Bioscience (Woburn, USA); tissue BD Bioscience; host or cells: pooled human liver microsomes
T3 sequence (P08684 whole entry): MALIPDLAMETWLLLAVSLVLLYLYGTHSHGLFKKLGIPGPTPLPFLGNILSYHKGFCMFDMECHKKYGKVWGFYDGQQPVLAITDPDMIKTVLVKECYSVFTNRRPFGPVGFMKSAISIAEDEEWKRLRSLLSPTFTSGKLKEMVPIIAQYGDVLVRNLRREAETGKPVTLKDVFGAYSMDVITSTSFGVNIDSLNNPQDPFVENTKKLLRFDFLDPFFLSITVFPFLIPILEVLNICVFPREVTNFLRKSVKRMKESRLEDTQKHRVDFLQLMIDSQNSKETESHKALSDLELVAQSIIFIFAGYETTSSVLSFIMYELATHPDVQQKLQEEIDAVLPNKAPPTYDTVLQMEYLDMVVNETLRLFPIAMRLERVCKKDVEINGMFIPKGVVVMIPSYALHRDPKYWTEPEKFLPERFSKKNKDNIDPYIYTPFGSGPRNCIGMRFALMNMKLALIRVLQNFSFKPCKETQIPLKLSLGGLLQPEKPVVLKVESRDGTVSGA
Description: as §2, §3, §4, §5, §6, §7

CYP3A4 [7] = biological target: T3, CYP3A4; experiment: Time-dependent inhibition of CYP3A4 in pooled HLMs; format: in vitro ADME
Description: as §1
The time-dependent characteristic was estimated by the values of KI and Kinact obtained from further experiments. The incubation was performed with 0, 2, 5, 10, 20, and 50 μM obtusofolin and a higher concentration of substrates (approximately 4-fold to Km) for 0, 5, 10, 15, and 30 min. The incubation scheme was performed as described above. The fitting equation to obtain the value of KI and Kinact was: 1/Kobs=KI/Kinact∗1/I+1/Kinact
where Kobs is the pseudo-first-order rate constant of inactivation at inactivated concentration [I], Kinact is the maximum inactivation rate (a theoretical value that cannot be experimentally observed), and KI is the inactivated concentration when the rate of inactivation reaches half of Kinact.

[8] = 100 μM obtusofolin, pooled HLMs, P < 0.05 vs negative control
[9] = Lineweaver–Burk plots, best fit
[10] = pooled HLMs, 0, 2.5, 5, 10, 25, 50, 100 μM obtusofolin, mean ± SD, triplicate

inhibitory effect on CYP2E1 versus incubation time (CYP2E1 [2]): not affected | activity of CYP2C9 (CYP2C9 [3]; [8]): significantly suppressed | inhibition model of CYP2C9 (CYP2C9 [3]; [9]): competitive | Ki (CYP2C9 [3]; competitive model, 5–20 μM diclofenac, pooled HLMs): 5.54 µM | IC50 (CYP2C9 [3]; [10]): 10.8 ± 0.13 µM | activity of CYP2E1 (CYP2E1 [4]; [8]): significantly suppressed | inhibition model of CYP2E1 (CYP2E1 [4]; [9]): competitive | Ki (CYP2E1 [4]; competitive model, 25–250 μM chlorzoxazone, pooled HLMs): 7.79 µM | IC50 (CYP2E1 [4]; [10]): 15.5 ± 0.16 µM | inhibitory effect on CYP2C9 versus incubation time (CYP2C9 [5]): not affected | activity of CYP3A4 (CYP3A4 [6]; [8]): significantly suppressed | inhibition model of CYP3A4 (CYP3A4 [6]; [9]): non-competitive | Ki (CYP3A4 [6]; non-competitive model, 20–100 μM testosterone, pooled HLMs): 8.82 µM | IC50 (CYP3A4 [6]; [10]): 17.1 ± 0.25 µM | inhibitory effect on CYP3A4 versus incubation time (CYP3A4 [7]; 20 μM obtusofolin, 5 to 30 min): increased with the incubation time | kinact (CYP3A4 [7]; human, pooled human liver microsomes, 0, 2, 5, 10, 20, 50 μM obtusofolin, 0-30 min, substrate approx. 4-fold Km): 0.000858 s⁻¹ | CYP3A4 inactivated per minute (CYP3A4 [7]; saturating concentration of obtusofolin): approximately 5.15%
SMILES: COc1c(O)c(C)cc2c1C(=O)c1c(O)cccc1C2=O [obtusofolin]
maximum (plasma concentration) [1]: 152.5 ± 62.3 ng/mL
